Source: patent publication US9884868B2, “TGF-beta inhibitors” (Rigel Pharmaceuticals, Inc., priority 2015, dated 2018)

Target: HIS-TGF-βR1 T204D (Homo sapiens (Human), UniProt P36897, T204D)
Test: HTRF probe displacement assay with HIS-TGF-βR1 T204D
Settings: read-out: TGFbr1 IC50; HTRF probe displacement, 1 nM HIS-TGF-βR1 T204D, 1 hour at room temperature

Chain of HIS-TGF-βR1 T204D (P36897 34-503 T204D): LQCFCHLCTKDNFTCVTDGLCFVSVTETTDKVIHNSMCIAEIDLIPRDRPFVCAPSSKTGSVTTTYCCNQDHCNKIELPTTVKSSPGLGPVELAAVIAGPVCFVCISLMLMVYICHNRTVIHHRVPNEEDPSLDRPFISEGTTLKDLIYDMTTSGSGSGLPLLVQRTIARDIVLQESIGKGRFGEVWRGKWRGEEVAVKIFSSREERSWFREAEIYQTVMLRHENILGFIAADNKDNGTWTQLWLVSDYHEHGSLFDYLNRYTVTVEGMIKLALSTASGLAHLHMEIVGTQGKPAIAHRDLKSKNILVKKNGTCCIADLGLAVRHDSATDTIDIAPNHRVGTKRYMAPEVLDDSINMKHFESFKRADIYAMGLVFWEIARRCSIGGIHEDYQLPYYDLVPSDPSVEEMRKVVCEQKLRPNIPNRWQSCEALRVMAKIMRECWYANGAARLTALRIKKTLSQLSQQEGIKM

Row | IC50 [nM] | Compound
1 | 0.6 | CC(C1CC1)n1cnc(-c2ccc(F)cc2)c1-c1ccc2ncc(C(N)=O)n2c1 (stereo not shown) [167′, 6-(1-(1-cyclopropylethyl)-4-(4-fluorophenyl)-1H-imidazol-5-yl)imidazo[1,2-a]pyridine-3-carboxamide]
2 | 39.7 | N#Cc1cnc2ccc(-c3c(-c4cc(Cl)cc(Cl)c4)ncn3CC(F)F)nn12 [238′, 6-(4-(3,5-dichlorophenyl)-1-(2,2-difluoroethyl)-1H-imidazol-5-yl)imidazo[1,2-b]pyridazine-3-carbonitrile]
3 | 9.9 | Cn1cnc(-c2ccc(F)cc2)c1-c1ccc2ncc(C#N)n2n1 [19′, 6-(4-(4-fluorophenyl)-1-methyl-1H-imidazol-5-yl)imidazo[1,2-b]pyridazine-3-carbonitrile]
4 | 0.5 | N#Cc1cnc2ccc(-c3c(-c4ccc(F)c(Cl)c4)ncn3C3CC(F)C3)nn12 (stereo not shown) [Example 104′, 6-(4-(3-chloro-4-fluorophenyl)-1-(3-fluorocyclobutyl)-1H-imidazol-5-yl)imidazo[1,2-b]pyridazine-3-carbonitrile]
5 | 867 | N#Cc1cnc2ccc(-c3c(-c4cccc(C(N)=O)c4)ncn3CC(F)F)nn12 [255′, 3-(5-(3-cyanoimidazo[1,2-b]pyridazin-6-yl)-1-(2,2-difluoroethyl)-1H-imidazol-4-yl)benzamide]
6 | 8.6 | N#Cc1cnc2ccc(-c3c(-c4cc(Cl)c(F)cc4F)ncn3CC(F)F)cn12 [229′, 6-(4-(5-chloro-2,4-difluorophenyl)-1-(2,2-difluoroethyl)-1H-imidazol-5-yl)imidazo[1,2-a]pyridine-3-carbonitrile]
7 | 0.9 | CCn1cnc(-c2ccc(F)c(Cl)c2)c1-c1ccc2ncc(C#N)n2n1 [52′, 6-(4-(3-chloro-4-fluorophenyl)-1-ethyl-1H-imidazol-5-yl)imidazo[1,2-b]pyridazine-3-carbonitrile]
8 | 2.3 | Cn1cnc(-c2ccc(F)c(Cl)c2)c1-c1ccc2ncc(C#N)n2n1 [50′, 6-(4-(3-chloro-4-fluorophenyl)-1-methyl-1H-imidazol-5-yl)imidazo[1,2-b]pyridazine-3-carbonitrile]
9 | 1.8 | NNC(=O)c1cnc2ccc(-c3c(-c4ccc(F)cc4)ncn3CC(F)F)nn12 [Example 205′, 6-(1-(2,2-difluoroethyl)-4-(4-fluorophenyl)-1H-imidazol-5-yl)imidazo[1,2-b]pyridazine-3-carbohydrazide]
10 | 0.7 | CCn1cnc(-c2ccc(F)cc2)c1-c1ccc2ncc(C(N)=O)n2n1 [112′, 6-(1-ethyl-4-(4-fluorophenyl)-1H-imidazol-5-yl)imidazo[1,2-b]pyridazine-3-carboxamide]
11 | 40.3 | CCCn1cnc(-c2ccc(F)cc2)c1-c1ccc2ncc(C#N)n2c1 [87′, 6-(4-(4-fluorophenyl)-1-propyl-1H-imidazol-5-yl)imidazo[1,2-a]pyridine-3-carbonitrile]
12 | 50.8 | Fc1ccc(-c2ncn(CCC(F)(F)F)c2-c2ccc3nccn3c2)cc1Cl [182′, 6-(4-(3-chloro-4-fluorophenyl)-1-(3,3,3-trifluoropropyl)-1H-imidazol-5-yl)imidazo[1,2-a]pyridine]
13 | 144 | N#Cc1cnc2ccc(-c3c(-c4ccc(F)cc4)ncn3C(CO)CO)cn12 [85′, 6-(1-(1,3-dihydroxypropan-2-yl)-4-(4-fluorophenyl)-1H-imidazol-5-yl)imidazo[1,2-a]pyridine-3-carbonitrile]
14 | 0.6 | CCn1cnc(-c2ccc(F)c(Cl)c2)c1-c1ccc2ncc(C(N)=O)n2n1 [117′, 6-(4-(3-chloro-4-fluorophenyl)-1-ethyl-1H-imidazol-5-yl)imidazo[1,2-b]pyridazine-3-carboxamide]
15 | 2.6 | CC[C@@H](CO)n1cnc(-c2ccc(F)cc2)c1-c1ccc2ncc(C(N)=O)n2n1 [125′, (S)-6-(4-(4-fluorophenyl)-1-(1-hydroxybutan-2-yl)-1H-imidazol-5-yl)imidazo[1,2-b]pyridazine-3-carboxamide]
16 | 127 | C[C@H](O)Cn1cnc(-c2ccc(F)cc2)c1-c1ccc2ncc(C#N)n2c1 [89′, (S)-6-(4-(4-fluorophenyl)-1-(2-hydroxypropyl)-1H-imidazol-5-yl)imidazo[1,2-a]pyridine-3-carbonitrile]
17 | 1.7 | NC(=O)c1cnc2ccc(-c3c(-c4ccc(F)c(Cl)c4)ncn3C3CCOC3)nn12 (stereo not shown) [146′, 6-(4-(3-chloro-4-fluorophenyl)-1-(tetrahydrofuran-3-yl)-1H-imidazol-5-yl)imidazo[1,2-b]pyridazine-3-carboxamide]
18 | 0.8 | Fc1ccc(-c2ncn(CC(F)F)c2-c2ccc3ncc(C(F)F)n3n2)cc1 [Example 215′, 6-(1-(2,2-difluoroethyl)-4-(4-fluorophenyl)-1H-imidazol-5-yl)-3-(difluoromethyl)imidazo[1,2-b]pyridazine]
19 | 7 | N#Cc1cnc2ccc(-c3c(-c4ccccc4CO)ncn3CC(F)F)nn12 [253′, 6-(1-(2,2-difluoroethyl)-4-(2-(hydroxymethyl)phenyl)-1H-imidazol-5-yl)imidazo[1,2-b]pyridazine-3-carbonitrile]
20 | 0.8 | NC(=O)c1cnc2ccc(-c3c(-c4ccc(F)c(Cl)c4)ncn3C3CC(F)C3)nn12 (stereo not shown) [141′, 6-(4-(3-chloro-4-fluorophenyl)-1-(3-fluorocyclobutyl)-1H-imidazol-5-yl)imidazo[1,2-b]pyridazine-3-carboxamide]

Row | IC50 [nM] | Compound
21 | 12.9 | Fc1ccc(-c2ncn(CC(F)F)c2-c2ccn3ncnc3c2)cc1 [Example 282′, 7-(1-(2,2-difluoroethyl)-4-(4-fluorophenyl)-1H-imidazol-5-yl)-[1,2,4]triazolo[1,5-a]pyridine]
22 | 73.5 | N#Cc1cnc2ccc(-c3c(-c4ccccc4C(N)=O)ncn3CC(F)F)nn12 [251′, 2-(5-(3-cyanoimidazo[1,2-b]pyridazin-6-yl)-1-(2,2-difluoroethyl)-1H-imidazol-4-yl)benzamide]
23 | 0.6 | CCC(C)n1cnc(-c2ccc(F)cc2)c1-c1ccc2ncc(C(N)=O)n2c1 (stereo not shown) [174′, 6-(1-(sec-butyl)-4-(4-fluorophenyl)-1H-imidazol-5-yl)imidazo[1,2-a]pyridine-3-carboxamide]
24 | 2.5 | NC(=O)c1cnc2ccc(-c3c(-c4ccc(F)cc4)ncn3C3CC3)nn12 [109′, 6-(1-cyclopropyl-4-(4-fluorophenyl)-1H-imidazol-5-yl)imidazo[1,2-b]pyridazine-3-carboxamide]
25 | 66.7 | N#Cc1cnc2ccc(-c3c(-c4ccc(F)cc4)ncn3CC(F)F)cn12 [Example 224′, 6-(1-(2,2-difluoroethyl)-4-(4-fluorophenyl)-1H-imidazol-5-yl)imidazo[1,2-a]pyridine-3-carbonitrile]
26 | 1.5 | CC[C@@H](CF)n1cnc(-c2ccc(F)cc2)c1-c1ccc2ncc(C(N)=O)n2n1 [128′, (S)-6-(1-(1-fluorobutan-2-yl)-4-(4-fluorophenyl)-1H-imidazol-5-yl)imidazo[1,2-b]pyridazine-3-carboxamide]
27 | 0.9 | Fc1ccc(-c2ncn(CC(F)F)c2-c2ccc3ncc(-c4cnco4)n3n2)cc1 [Example 216′, 5-(6-(1-(2,2-difluoroethyl)-4-(4-fluorophenyl)-1H-imidazol-5-yl)imidazo[1,2-b]pyridazin-3-yl)oxazole]
28 | 1.8 | N#Cc1cnc2ccc(-c3c(-c4ccc(F)c(Cl)c4)ncn3CCO)nn12 [Example 32′, 6-(4-(3-chloro-4-fluorophenyl)-1-(2-hydroxyethyl)-1H-imidazol-5-yl)imidazo[1,2-b]pyridazine-3-carbonitrile]
29 | 2.2 | Fc1cc(F)c(-c2ncn(CC(F)F)c2-c2ccc3nccn3c2)cc1Cl [223′, 6-(4-(5-chloro-2,4-difluorophenyl)-1-(2,2-difluoroethyl)-1H-imidazol-5-yl)imidazo[1,2-a]pyridine]
30 | 23.8 | CNCc1cnc2ccc(-c3c(-c4ccc(F)cc4)ncn3CC(F)F)nn12 [Example 196′]
31 | 6 | Cn1cnc(-c2ccc(F)c(Cl)c2)c1-c1ccc2nccn2c1 [181′, 6-(4-(3-chloro-4-fluorophenyl)-1-methyl-1H-imidazol-5-yl)imidazo[1,2-a]pyridine]
32 | 0.5 | NC(=O)c1cnc2ccc(-c3c(-c4ccc(F)cc4)ncn3C3CCC3)cn12 [172′, 6-(1-cyclobutyl-4-(4-fluorophenyl)-1H-imidazol-5-yl)imidazo[1,2-a]pyridine-3-carboxamide]
33 | 19.8 | N#Cc1cnc2ccc(-c3c(-c4ccc(F)cc4)ncn3C3CC3)cn12 [77′, 6-(1-cyclopropyl-4-(4-fluorophenyl)-1H-imidazol-5-yl)imidazo[1,2-a]pyridine-3-carbonitrile]
34 | 1.7 | NC(=O)c1cnc2ccc(-c3c(-c4ccc(F)c(Cl)c4)ncn3CCCCl)nn12 [149′, 6-(4-(3-chloro-4-fluorophenyl)-1-(3-chloropropyl)-1H-imidazol-5-yl)imidazo[1,2-b]pyridazine-3-carboxamide]
35 | 170 | N#Cc1cnc2ccc(-c3c(-c4ccc(F)cc4)ncn3C[C@@H](O)CO)cn12 [71′, (R)-6-(1-(2,3-dihydroxypropyl)-4-(4-fluorophenyl)-1H-imidazol-5-yl)imidazo[1,2-a]pyridine-3-carbonitrile]
36 | 29.6 | Cc1nc(-c2ccc(F)cc2)c(-c2ccc3[nH]ncc3c2)n1CC(F)F [Example 273′, 5-(1-(2,2-difluoroethyl)-4-(4-fluorophenyl)-2-methyl-1H-imidazol-5-yl)-1H-indazole]
37 | 56.7 | Fc1ccc(-c2ncn(CC(F)F)c2-c2ccc3ncc(F)n3c2)cc1 [Example 288′, 6-(1-(2,2-difluoroethyl)-4-(4-fluorophenyl)-1H-imidazol-5-yl)-3-fluoroimidazo[1,2-a]pyridine]
38 | 2 | N#Cc1cnc2ccc(-c3c(-c4ccc(F)cc4)ncn3CCCO)nn12 [15′, 6-(4-(4-fluorophenyl)-1-(3-hydroxypropyl)-1H-imidazol-5-yl)imidazo[1,2-b]pyridazine-3-carbonitrile]
39 | 2.3 | CC(CCO)n1cnc(-c2ccc(F)cc2)c1-c1ccc2ncc(C(N)=O)n2c1 (stereo not shown) [154′, 6-(4-(4-fluorophenyl)-1-(4-hydroxybutan-2-yl)-1H-imidazol-5-yl)imidazo[1,2-a]pyridine-3-carboxamide]

Row | Compound | IC50 [nM]
40 | N#Cc1cccc(-c2ncn(CC(F)F)c2-c2ccc3ncc(C#N)n3n2)c1 [Example 236] | 2.1
